According to patent US5021551A, “Method of enhancing peptide immunogenicity” (Washington University, priority 1989, dated 1991):
Entries after “also recorded” stand apart in the source; their conditions may differ. Peptide text beside a SMILES is read from it.

Key:
Type in all cases: cell-based
[1] = system: A6.A2 T cell hybridoma (HEL (34-45) specific); assay: T cell stimulation assay, A6.A2 hybridoma, fixed TA3 antigen-presenting cells; details: FIG. 2
Protocol: (§1) FIG. 2a and 2b are graphical representation which show the stimulation of two T cell hybridomas, A6.A2 ([…]) and 18N.30 ([…]), that react with a modified T cell immunogenic peptide 34-45NH.sbsb.2 ( ) in another embodiment of the invention compared to normal peptide HEL (34-45) ( ). The assay was performed as described hereinafter in Materials and Methods of the Examples except fixed TA3 cells were used as the source of antigen-presenting cell.
(§2) The level of T cell stimulation was determined as previously described in detail by Allen and Unanue, J. Immunol. 132, 1077 (1984). In general, the level of T cell stimulation was determined by quantitating the amount of IL-2 produced by the T cell hybridomas. IL-2 was bioassayed by determining the level of ^3 H-Thymidine incorporation of the IL-2 dependent cell line, CTLL, 24 hours after culture in the test culture media. The source of antigen presenting cells were either peptone elicited peritoneal macrophages from CBA/J mice previously infected with Listeria monocytogenes or the B cell hybridoma, TA3 [Allen and Unanue, Id.; Allen et al, Proc. Natl. Acad. Sci. USA 81, 2489 (1984)]. […]
(§3) It was also determined whether the changes that enhanced the immunogenicity of HEL (52-61) could be extrapolated to another peptide of HEL which had been previously studied, namely the peptide comprising residues 34-45 [Allen et al, Immun. […]

[2] = system: 18N.30 T cell hybridoma (HEL (34-45) specific); assay: T cell stimulation assay, 18N.30 hybridoma, fixed TA3 antigen-presenting cells; details: FIG. 2
Protocol: as §1, §2, §3

[3] = system: 3A9 T cell hybridoma (HEL(52-61) specific); assay: T cell stimulation assay (IL-2 release, CTLL bioassay), 3A9 hybridoma
Protocol: (§4) The level of T cell stimulation was determined as previously described in detail by Allen and Unanue, J. Immunol. 132, 1077 (1984). In general, the level of T cell stimulation was determined by quantitating the amount of IL-2 produced by the T cell hybridomas. IL-2 was bioassayed by determining the level of ^3 H-Thymidine incorporation of the IL-2 dependent cell line, CTLL, 24 hours after culture in the test culture media. The source of antigen presenting cells were either peptone elicited peritoneal macrophages from CBA/J mice previously infected with Listeria monocytogenes or the B cell hybridoma, TA3 [Allen and Unanue, Id.; Allen et al, Proc. Natl. Acad. Sci. USA 81, 2489 (1984)]. Both sources of antigen presenting cells were fixed with paraformaldehyde prior to exposure to antigen.
(§5) The relative stimulatory capacity of derivatives of HEL (52-61) are shown. The relative stimulatory capacity of a peptide was determined by the relative shift in the concentration of antigen required for a 50% maximal response. For example, 300 fold less ^- 52-61^+. was required for a 50% maximal response than 52-61 with 3A9 T cells. The stimulation of 3A9 and 2All, two HEL (46-61) specific T cells, was determined as described in Materials and Methods. This test was performed three times, with identical results. A representative test is shown.

[4] = system: 2A11 T cell hybridoma (HEL(52-61) specific); assay: T cell stimulation assay (IL-2 release, CTLL bioassay), 2A11 hybridoma; details: relative shift in antigen concentration required for 50% maximal response; 52-61 = 1
Protocol: as §4, §5

SMILES	increase in response of A6.A2 compared to unmodified HEL (34-45) [1]	increase in response of 18N.30 compared to unmodified HEL (34-45) [2]	stimulatory ability, 3A9 T cell (in words) ([3]; qualitative comparison)	Relative Stimulatory Capacity, T Cell 3A9 ([3]; relative shift in antigen concentration required for 50% maximal response, 52-61 = 1)	Relative Stimulatory Capacity, T Cell 2A11 [4]
C[C@H](NC(=O)[C@H](CCC(N)=O)NC(=O)[C@@H](NC(=O)[C@H](CC(N)=O)NC(=O)[C@H](Cc1ccccc1)NC(=O)[C@H](CC(N)=O)NC(=O)[C@H](CO)NC(=O)[C@H](CCC(=O)O)NC(=O)[C@@H](N)Cc1ccccc1)[C@@H](C)O)C(=O)N[C@H](C(=O)N[C@@H](CC(N)=O)C(=O)N[C@@H](CCCNC(=N)N)C(N)=O)[C@@H](C)O [HEL (34-45) with a C terminal amide] (H-FESNFNTQATNR-NH2)	50 fold	250 fold	–	–	–
CC[C@H](C)[C@H](NC(=O)CNC(=O)[C@H](Cc1ccc(O)cc1)NC(=O)[C@H](CC(=O)O)NC(=O)[C@@H](N)CCCCN)C(=O)N[C@@H](CC(C)C)C(=O)N[C@@H](CCC(N)=O)C(=O)N[C@H](C(=O)N[C@@H](CC(N)=O)C(=O)N[C@@H](CO)C(=O)N[C@@H](CCCNC(=N)N)C(=O)N[C@@H](CCC(=O)O)C(=O)O)[C@@H](C)CC [^+- 52-61^-+] (H-KDYGILQINSRE-OH)	–	–	drastically reduced; also recorded: less active than HEL (52-61)	0.3	10
